The values below come from the PolyMetriX glass transition set.

Molecules are shown by their SMILES.

Consider `*C(=O)Oc1ccc(OCCCCCCCCCCCCOc2ccc(OC(=O)c3ccc4c(c3)C(=O)N(c3ccc(S(=O)(=O)c5ccc(N6C(=O)c7ccc(*)cc7C6=O)cc5)cc3)C4=O)cc2)cc1` (repeat unit), for which the glass transition temperature was 140.00 °C. Take `*CC1CCCC(CN2C(=O)c3ccc(C(=O)c4ccc5c(c4)C(=O)N(*)C5=O)cc3C2=O)C1` (repeat unit): the glass transition temperature worked out at 213.00 °C. Regarding `*CCCCCCCCCCCCN1C(=O)c2ccc(C(=O)c3ccc4c(c3)C(=O)N(*)C4=O)cc2C1=O` (repeat unit), the glass transition temperature came to 87.50 °C.

In the case of `*CCCCCCCCCCN1C(=O)c2ccc(Oc3ccc4c(c3)C(=O)N(*)C4=O)cc2C1=O` (repeat unit), the glass transition temperature came out at 91.50 °C. Molecule `*CCCCCCN1C(=O)c2ccc(Oc3ccc4c(c3)C(=O)N(*)C4=O)cc2C1=O` (repeat unit) showed a glass transition temperature of 164.00 °C.

The molecule `*COC(=O)c1ccc(/C(C#N)=C(\c2ccc(OC)cc2)N2CCCC(*)C2)cc1` (repeat unit) returned a glass transition temperature of 176.00 °C. As to `*OC(=O)Oc1ccc2c(c1)Oc1cc(*)ccc1C21c2ccccc2-c2ccccc21` (repeat unit), the glass transition temperature worked out at 295.00 °C. `*OC(=O)c1ccc(C(=O)Oc2ccc3c(c2)Oc2cc(*)ccc2C32c3ccccc3-c3ccccc32)cc1` (repeat unit) registered a glass transition temperature of 290.00 °C.

In turn, `*OP(=O)(Oc1ccc(*)cc1)OC1CCCCC1` (repeat unit) returned a glass transition temperature of 108.00 °C.

`*OP(=O)(Oc1ccc(C)cc1)Oc1ccc(S(=O)(=O)c2ccc(*)cc2)cc1` (repeat unit) displayed a glass transition temperature of 66.00 °C. In turn, `*OP(=O)(Oc1ccccc1)Oc1ccc(S(=O)(=O)c2ccc(*)cc2)cc1` (repeat unit) showed a glass transition temperature of 100.50 °C.

Molecule `*O[Si](C)(C)Oc1ccc(*)cc1` (repeat unit) yielded a glass transition temperature of 90.00 °C. For `*Oc1ccc(*)cc1` (repeat unit) the value was 85.00 °C.

As to `*Oc1ccc(-c2ccc(Oc3ccc(*)cc3)c3ccccc23)c2ccccc12` (repeat unit), the glass transition temperature is 226.00 °C. `*Oc1ccc(C(c2ccc(Oc3ccc(C(=O)c4ccc(P(=O)(c5ccccc5)c5ccc(C(=O)c6ccc(*)cc6)cc5)cc4)cc3)cc2)(C(F)(F)F)C(F)(F)F)cc1` (repeat unit) showed a glass transition temperature of 207.00 °C. Next, `*Oc1ccc(OC2(F)C(*)(F)C(F)(F)C2(F)F)cc1` (repeat unit): 41.00 °C; `*Oc1ccc(Oc2ccc(/C=N/CC/N=C/c3ccc(*)cc3)cc2)cc1` (repeat unit): 101.00 °C; `*Oc1ccc(Oc2ccc(/C=N/c3ccc(Oc4ccc(/N=C/c5ccc(*)cc5)cc4)cc3)cc2)cc1` (repeat unit): 120.00 °C. On to `*Oc1ccc(Oc2ccc(C(=O)c3ccc(P(=O)(c4ccccc4)c4ccc(C(=O)c5ccc(*)cc5)cc4)cc3)cc2)cc1` (repeat unit), for which the glass transition temperature came out at 207.00 °C. `*Oc1ccc(Oc2ccc(C(=O)c3ccccc3)c(-c3cc(*)ccc3C(=O)c3ccccc3)c2)cc1` (repeat unit): the glass transition temperature worked out at 156.00 °C. `*Oc1ccc(Oc2ccc(OC(=O)c3cccc(C(*)=O)c3)cc2)cc1` (repeat unit): the glass transition temperature is 164.50 °C. With `*Oc1ccc(Oc2ccc(OC(=O)c3ccccc3-c3ccccc3C(*)=O)cc2)cc1` (repeat unit), the glass transition temperature turned out to be 147.00 °C.

The molecule `*Oc1ccc(Oc2cccc(C(=O)Oc3ccc(OC(=O)c4cccc(*)c4)cc3)c2)cc1` (repeat unit) gave a glass transition temperature of 119.00 °C.

`*Oc1ccc(S(=O)(=O)c2ccc(OC(=O)c3ccc([Si](c4ccccc4)(c4ccccc4)c4ccc(C(*)=O)cc4)cc3)cc2)cc1` (repeat unit) gave a glass transition temperature of 250.00 °C. On to `*Oc1ccc(S(=O)(=O)c2ccc(Oc3c(C)cc(-c4cc(C)c(*)c(C)c4Br)c(Br)c3C)cc2)cc1` (repeat unit), for which the glass transition temperature was found to be 298.20 °C. On to `*Oc1ccc(S(=O)(=O)c2ccc(Oc3ccc4c(=O)n5c6cc(-c7ccc8c(c7)nc7c9ccc(*)c%10cccc(c(=O)n87)c%109)ccc6nc5c5cccc3c45)cc2)cc1` (repeat unit), for which the glass transition temperature was found to be 415.00 °C. Turning to `*Oc1ccc(Sc2ccc(OC3(F)C(*)(F)C(F)(F)C3(F)F)cc2)cc1` (repeat unit), the glass transition temperature was determined as 78.00 °C. For `*Oc1ccc(Sc2ccc(Oc3ccc4c(=O)n5c6cc(-c7ccc8c(c7)nc7c9ccc(*)c%10cccc(c(=O)n87)c%109)ccc6nc5c5cccc3c45)cc2)cc1` (repeat unit), the glass transition temperature is 386.00 °C. The molecule `*Oc1ccc2cc(C(*)=O)ccc2c1` (repeat unit) showed a glass transition temperature of 147.00 °C. Molecule `*Oc1cccc(Oc2ccc(S(=O)(=O)c3ccc(Oc4ccc(C(=O)c5ccc(*)cc5)cc4)cc3)cc2)c1` (repeat unit) came in with a glass transition temperature of 167.00 °C.

Consider `*Oc1cccc2cc(OC(=O)c3ccc(Oc4ccc(C(*)=O)cc4)cc3)ccc12` (repeat unit), for which the glass transition temperature amounted to 179.00 °C.

Consider `*c1ccc(-c2ccc(N3C(=O)c4ccc(Oc5ccc6c(c5)C(=O)N(*)C6=O)cc4C3=O)cc2)cc1` (repeat unit), for which the glass transition temperature was 286.00 °C. For the molecule `*c1ccc(C(=O)c2ccc(C(=O)c3ccc(S(*)(=O)=O)cc3)cc2)cc1` (repeat unit), the glass transition temperature is 213.50 °C.

As for `*c1ccc(Cc2ccc(N3C(=O)c4ccc(Oc5ccc(Oc6ccc7c(c6)C(=O)N(*)C7=O)cc5)cc4C3=O)cc2)cc1` (repeat unit), the glass transition temperature is 259.00 °C. Next, `*c1ccc(Oc2ccc(-c3ccc(Oc4ccc(N5C(=O)c6ccc(Oc7ccc(Oc8ccc(Oc9ccc%10c(c9)C(=O)N(*)C%10=O)cc8)cc7)cc6C5=O)cc4)cc3)cc2)cc1` (repeat unit): 211.00 °C; `*c1ccc(Oc2ccc(-c3ccc(Oc4ccc(N5C(=O)c6ccc(Oc7ccc(Sc8ccc(Oc9ccc%10c(c9)C(=O)N(*)C%10=O)cc8)cc7)cc6C5=O)cc4)cc3)cc2)cc1` (repeat unit): 205.00 °C. Take `*c1ccc(Oc2ccc(Oc3ccc(N4C(=O)c5ccc(Oc6ccc(Sc7ccc(Oc8ccc9c(c8)C(=O)N(*)C9=O)cc7)cc6)cc5C4=O)cc3)cc2)cc1` (repeat unit): the glass transition temperature worked out at 201.00 °C. As to `*c1ccc(Oc2ccc(Oc3ccc(N4C(=O)c5ccc(Oc6ccc7c(c6)C(=O)N(*)C7=O)cc5C4=O)cc3C(F)(F)F)cc2)cc1` (repeat unit), the glass transition temperature turned out to be 232.30 °C. `*c1ccc(Oc2cccc(-c3cc(-c4ccccc4)cc(-c4cccc(Oc5ccc(N6C(=O)c7ccc(Oc8ccc9c(c8)C(=O)N(*)C9=O)cc7C6=O)cc5)c4)n3)c2)cc1` (repeat unit) displayed a glass transition temperature of 224.00 °C. Take `*c1ccc(Oc2cccc(Oc3ccc(N4C(=O)c5ccc(Oc6ccc(Oc7ccc(Oc8ccc9c(c8)C(=O)N(*)C9=O)cc7)cc6)cc5C4=O)cc3)c2)cc1` (repeat unit): the glass transition temperature was 184.00 °C.

In the case of `*c1ccc(Oc2cccc(Oc3ccc(N4C(=O)c5ccc(Oc6ccc(Oc7ccc8c(c7)C(=O)N(*)C8=O)cc6)cc5C4=O)cc3)c2)cc1` (repeat unit), the glass transition temperature turned out to be 199.00 °C. Regarding `*c1ccc(Oc2cccc(Oc3ccc(N4C(=O)c5cccc(Oc6ccc(Oc7cccc8c7C(=O)N(*)C8=O)cc6)c5C4=O)cc3)c2)cc1` (repeat unit), the glass transition temperature stood at 214.00 °C. `*c1ccc(Oc2cccc(Oc3ccc(N4C(=O)c5cccc(Oc6ccc(Sc7ccc(Oc8cccc9c8C(=O)N(*)C9=O)cc7)cc6)c5C4=O)cc3)c2)cc1` (repeat unit) displayed a glass transition temperature of 202.00 °C. Molecule `*c1ccc(S(=O)(=O)c2ccc(-n3nc(-c4ccccc4)c4ccc(Oc5ccc6c(-c7ccccc7)nn(*)c(=O)c6c5)cc4c3=O)cc2)cc1` (repeat unit) came in with a glass transition temperature of 294.50 °C. For `*c1ccc(S(=O)(=O)c2ccc(N3C(=O)c4ccc(Oc5ccc(Oc6ccc7c(c6)C(=O)N(*)C7=O)cc5)cc4C3=O)cc2)cc1` (repeat unit) the value was 283.00 °C; for `*c1ccc(Sc2ccc(Sc3ccc(Sc4ccc(N5C(=O)c6ccc(Oc7ccc8c(c7)C(=O)N(*)C8=O)cc6C5=O)cc4)cc3)cc2)cc1` (repeat unit), 202.7 °C. Molecule `*c1ccc2cc(OC(=O)c3ccc(C(=O)Oc4ccc5cc(-c6nc7ccccc7nc6*)ccc5c4)cc3)ccc2c1` (repeat unit) displayed a glass transition temperature of 136.00 °C. As to `*c1cccc(C(F)(F)C(F)(F)C(F)(F)C(F)(F)C(F)(F)c2cccc(N3C(=O)c4ccc(Oc5ccc6c(c5)C(=O)N(*)C6=O)cc4C3=O)c2)c1` (repeat unit), the glass transition temperature was 157.00 °C.

As to `*c1cccc(C(F)(F)C(F)(F)C(F)(F)c2cccc(N3C(=O)c4ccc(Oc5ccc6c(c5)C(=O)N(*)C6=O)cc4C3=O)c2)c1` (repeat unit), the glass transition temperature stood at 183.00 °C. Next, `*c1cccc(N2C(=O)c3cccc(Oc4ccc(Oc5cccc6c5C(=O)N(*)C6=O)cc4)c3C2=O)c1` (repeat unit): 259.00 °C; `*c1cccc(Oc2cccc(Oc3cccc(N4C(=O)c5ccc(Oc6ccc(Sc7ccc(Oc8ccc9c(c8)C(=O)N(*)C9=O)cc7)cc6)cc5C4=O)c3)c2)c1` (repeat unit): 190.50 °C.

The molecule `*c1cccc(P(=O)(c2ccc(C(F)(F)F)cc2)c2cccc(N3C(=O)c4ccc(Oc5ccc6c(c5)C(=O)N(*)C6=O)cc4C3=O)c2)c1` (repeat unit) gave a glass transition temperature of 248.00 °C. `*c1cccc(P(=O)(c2ccc(Oc3ccc(C45CC6CC(CC(C6)C4)C5)cc3)cc2)c2cccc(N3C(=O)c4ccc(Oc5ccc6c(c5)C(=O)N(*)C6=O)cc4C3=O)c2)c1` (repeat unit) returned a glass transition temperature of 290.00 °C. `*c1cccc(P(=O)(c2cccc(N3C(=O)c4ccc(Oc5ccc6c(c5)C(=O)N(*)C6=O)cc4C3=O)c2)c2cc(C(F)(F)F)cc(C(F)(F)F)c2)c1` (repeat unit) displayed a glass transition temperature of 228.00 °C.

Molecule `*c1cccc(P(=O)(c2ccccc2)c2cccc(N3C(=O)c4ccc(Oc5ccc6c(c5)C(=O)N(*)C6=O)cc4C3=O)c2)c1` (repeat unit) had a glass transition temperature of 251.00 °C.
